Measurements as given in patent publication EP3521435A1, “A HIGH STRINGENCY SELECTION SYSTEM FOR PROTEIN EXPRESSION IN PROLINE-AUXOTROPHIC CELLS” (Bayer AG, priority 2018, dated 2019).

Experiments:
CHO-K1 cells = test: Flow cytometric analysis of GFP expression (MFI, high fluorescing cells) in stably selected cell populations; format: cell-based, Chinese hamster
Description: To efficiently test the impact of different procedures on improving selection stringency, experimental testing in stable cell populations was performed. As test molecules, enhanced green fluorescent protein (GFP) as well as a human IgG1 were chosen. CHO-K1 cells adapted to growth in suspension in defined medium were obtained from SAFC and cultivated in EX-CELL CD CHO Fusion medium (SAFC 14365C). Custom-made EX-CELL CD CHO Fusion medium without L-Proline (Pro) and without L-Ornithine (Orn) ("proline-free medium") was obtained from SAFC. The expression vector system was based on modified versions of "CET 1019 AS-puro-SceI" and "CET 1019 AD-puro-SceI" for GFP and human IgG1, respectively, from Merck-Millipore, containing the Puromycin selection marker (Puromycin N-acetyl-transferase) known to exert a high selection stringency. To minimize variations in cell populations derived from using different transfections or different vectors, the first series of experiments were conducted using vectors into which a P5CS expression cassette was cloned upstream of a UCOE element, in addition to the Puromycin selection marker present downstream of a gene of interest. This way, it was possible to pool different transfections using the same vector to obtain a common starting point, and split the mixture according to different selection conditions, minimizing any variations that are not due to selection conditions themselves. Expression of long and short isoform of murine P5CS (Protein: Delta-1-pyrroline-5-carboxylate synthase; Gene: Aldh18a1; UniProtKB accession number: Q9Z110-1 & Q9Z110-2) was driven by a SV40 promoter. A SV40 polyadenylation sequence was used at the 3' end of the gene. More details can be found in Table 1. Typically, CHO cells were cultivated in EX-CELL CD CHO Fusion medium containing 6 mM GlutaMAX (Thermo Fisher, 35050-38) ("CD-Fusion medium") at 37 °C with 5% CO2. Cells were grown to logarithmic phase under shaking conditions for transfections. 1e7 cells/cuvette were transfected using nucleofection (Amaxa Nucleofector II, following the manufacturer's recommendations) with 5 µg of linearized DNA. After transfection, cells were taken up in 1 ml medium and transferred into 1 well of a 6 well microtiter plate (MTP) already containing 1 ml medium. The cells were incubated for 24 h without shaking, after which 9 ml medium were added and cells were washed (either in standard or proline-free medium). Multiple transfections were pooled, if applicable. Cells were adjusted to 2e5 viable cells/ml and 10 ml were transferred to T-25 flasks. Reference cell populations were selected using 10 µg/ml Puromycin in CD-Fusion medium. For P5CS-based selection, EX-CELL CD CHO Fusion medium (custom-made, SAFC) containing 6 mM GlutaMAX without proline and without ornithine was used ("proline-free" or "CD-Fusion w/o Pro" medium), with or without additional selection pressure.
Cell viability of the different populations was monitored over time. As soon as cell populations appeared to recover from selection pressure, cells were transferred to Shake Flask or TubeSpins for expansion in suspension under shaking conditions. Subsequently, stable cell populations transfected with IgG were seeded at 2e5 viable cells/ml for batch fermentation without selection pressure (i.e. standard CD-Fusion medium containing proline and no other selective agents). The cells were cultivated for 5-10 days, viable cell densities and productivity were monitored over time. IgG titers were determined using Poros A-HPLC method. Typically, final batch titers were recorded at a time point at which majority of cultures had around 70% viability. Stable cell populations transfected with GFP vector were subjected to analysis by flow cytometry using Guava easyCyte 8HT Benchtop Flow Cytometer (Millipore). 250 µl of cell culture were transferred to 96 MTP and washed with PBS. Dead cells were excluded from analysis using propidium iodide (PI). […]

murine P5CS long isoform = biological target: T1, murine P5CS long isoform (Mus musculus, UniProt Q9Z110); settings: Hu et al.; cited from earlier work
T1 sequence (Q9Z110 1-795): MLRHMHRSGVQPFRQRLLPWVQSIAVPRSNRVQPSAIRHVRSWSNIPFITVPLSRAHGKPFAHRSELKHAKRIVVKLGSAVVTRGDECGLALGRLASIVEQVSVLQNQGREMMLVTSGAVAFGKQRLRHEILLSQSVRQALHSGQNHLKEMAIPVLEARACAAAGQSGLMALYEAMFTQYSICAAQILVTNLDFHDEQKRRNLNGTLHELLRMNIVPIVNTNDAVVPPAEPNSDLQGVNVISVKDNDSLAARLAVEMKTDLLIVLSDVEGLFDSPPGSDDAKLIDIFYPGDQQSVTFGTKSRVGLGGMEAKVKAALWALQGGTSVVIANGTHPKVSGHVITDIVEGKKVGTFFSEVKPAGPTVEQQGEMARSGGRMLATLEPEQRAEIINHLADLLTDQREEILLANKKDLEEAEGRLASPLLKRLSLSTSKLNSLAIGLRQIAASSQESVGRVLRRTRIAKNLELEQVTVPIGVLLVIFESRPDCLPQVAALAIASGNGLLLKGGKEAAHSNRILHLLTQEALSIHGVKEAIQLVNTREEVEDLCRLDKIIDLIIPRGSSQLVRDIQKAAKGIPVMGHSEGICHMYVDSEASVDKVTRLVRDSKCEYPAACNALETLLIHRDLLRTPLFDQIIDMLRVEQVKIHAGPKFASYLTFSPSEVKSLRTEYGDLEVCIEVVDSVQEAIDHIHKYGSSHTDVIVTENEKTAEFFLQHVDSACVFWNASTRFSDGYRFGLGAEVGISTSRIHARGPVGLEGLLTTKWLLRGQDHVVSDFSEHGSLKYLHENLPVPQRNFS

[1] = day 15 post-transfection, pJF1555, CD-Fusion w/o Pro + 0.2 mM Orn
[2] = day 15 post-transfection, pJF1555, CD-Fusion w/o Pro + 0.2 mM Orn + 10 µg/ml Puromycin
[3] = day 15 post-transfection, pJF1555, CD-Fusion w/o Pro + 1 mM Orn
[4] = day 15 post-transfection, pJF1555, CD-Fusion w/o Pro + 1 mM Orn + 10 µg/ml Puromycin
[5] = day 15 post-transfection, pJF1555, CD-Fusion w/o Pro + 5 mM Orn
[6] = day 15 post-transfection, pJF1555, CD-Fusion w/o Pro + 5 mM Orn + 10 µg/ml Puromycin
[7] = Table 11, day 19 post-transfection, pJF1555, CD-Fusion + 10 µg/ml Puromycin
[8] = Table 11, day 19 post-transfection, pJF1555, CD-Fusion w/o Pro + 0.25mM Pro + 10 µg/ml Puromycin
[9] = Table 13, day 19 post-transfection, pJF1555, CD-Fusion + 10 µg/ml Puromycin
[10] = Table 13, day 19 post-transfection, pJF1555, CD-Fusion w/o Pro + 0.25 mM Pro + 10 µg/ml Puromycin
[11] = Table 13, day 19 post-transfection, pJF1576 (control, human IgG1 vector), CD-Fusion + 10 µg/ml Puromycin
[12] = day 15 post-transfection, pJF1555, CD Fusion + 10 µg/ml Puromycin
[13] = day 15 post-transfection, pJF1555, CD-Fusion w/o Pro + 10 µg/ml Puromycin
[14] = day 15 post-transfection, pJF1555, CD-Fusion w/o Pro + 0.25 mM Pro + 10 µg/ml Puromycin
[15] = day 20 post-transfection, pJF1556, CD Fusion + 10 µg/ml Puromycin
[16] = day 20 post-transfection, pJF1556, CD-Fusion w/o Pro + 10 µg/ml Puromycin
[17] = day 20 post-transfection, pJF1556, CD-Fusion w/o Pro + 0.25 mM Pro + 10 µg/ml Puromycin
[18] = day 22 post-transfection, pJF2053, CD-Fusion + 10 µg/ml Puromycin
[19] = day 22 post-transfection, pJF2222, CD-Fusion + 10 µg/ml Puromycin
[20] = day 29 post-transfection, pJF2053, CD-Fusion + 10 µg/ml Puromycin

Q: For NCCC[C@H](N)C(=O)O [Orn, L-Ornithine], which “Frequency of high fluorescing cells” value (CHO-K1 cells; [1]) is on record?
A: 2.4%

Q: What about the “Median Fluorescence Intensity (MFI) (yellow)” value (shortened to “Median Fluorescence Intensity”) (CHO-K1 cells; [1]) of the same molecule?
A: 3337

Q: What about the “Frequency of high fluorescing cells” value (CHO-K1 cells; [2]) of the same molecule?
A: 4.1%

Q: What about the “Median Fluorescence Intensity” value (CHO-K1 cells; [2]) of the same molecule?
A: 4665

Q: And the “Frequency of high fluorescing cells” value (CHO-K1 cells; day 15 post-transfection, pJF1555, CD-Fusion w/o Pro + 0.25 mM Ornithine)?
A: 6.3%

Q: What about the “Frequency of high fluorescing cells” value (CHO-K1 cells; day 15 post-transfection, pJF1555, CD-Fusion w/o Pro + 0.5 mM Ornithine) of the same molecule?
A: 4.1%

Q: What about the “Frequency of high fluorescing cells” value (CHO-K1 cells; [3]) of the same molecule?
A: 2.4%

Q: And the “Median Fluorescence Intensity” value (CHO-K1 cells; [3])?
A: 3121

Q: And the “Frequency of high fluorescing cells” value (CHO-K1 cells; [4])?
A: 2.8%

Q: What about the “Median Fluorescence Intensity” value (CHO-K1 cells; [4]) of the same molecule?
A: 3739

Q: And the “Frequency of high fluorescing cells” value (CHO-K1 cells; day 15 post-transfection, pJF1555, CD-Fusion w/o Pro + 1 mM Ornithine)?
A: 2.3%

Q: And the “Frequency of high fluorescing cells” value (CHO-K1 cells; day 15 post-transfection, pJF1555, CD-Fusion w/o Pro + 2 mM Ornithine)?
A: 0.7%

Q: And the “Frequency of high fluorescing cells” value (CHO-K1 cells; day 15 post-transfection, pJF1555, CD-Fusion w/o Pro + 3 mM Ornithine)?
A: 2.6%

Q: And the “Frequency of high fluorescing cells” value (CHO-K1 cells; day 15 post-transfection, pJF1555, CD-Fusion w/o Pro + 4 mM Ornithine)?
A: 1.5%

Q: What about the “Frequency of high fluorescing cells” value (CHO-K1 cells; [5]) of the same molecule?
A: 0.5%

Q: What about the “Median Fluorescence Intensity” value (CHO-K1 cells; [5]) of the same molecule?
A: 1435

Q: What about the “Frequency of high fluorescing cells” value (CHO-K1 cells; [6]) of the same molecule?
A: 6.1%

Q: And the “Median Fluorescence Intensity” value (CHO-K1 cells; [6])?
A: 4103

Q: And the “Frequency of high fluorescing cells” value (CHO-K1 cells; day 15 post-transfection, pJF1555, CD-Fusion w/o Pro + 5 mM Ornithine)?
A: 1.7%

Q: What about the Ornithine inhibition (murine P5CS long isoform) of the same molecule?
A: insensitive

Q: What does the source list for COc1ccc(C[C@H](N)C(=O)N[C@H]2[C@@H](O)[C@H](n3cnc4c(N(C)C)ncnc43)O[C@@H]2CO)cc1 [Puromycin]?
A: Frequency of high fluorescing cells (CHO-K1 cells; Table 9, day 15 post-transfection, pJF1555, CD-Fusion w/o Pro + 0.25 mM Pro + 10 µg/ml Puromycin): 4.3%; Frequency of high fluorescing cells (CHO-K1 cells; [7]): 3.4%; Median Fluorescence Intensity (MFI) (yellow) (CHO-K1 cells; [7]): 13092; Frequency of high fluorescing cells (CHO-K1 cells; [8]): 3.6%; Median Fluorescence Intensity (MFI) (yellow) (CHO-K1 cells; [8]): 12860; Frequency of high fluorescing cells (CHO-K1 cells; [9]): 1.0%; Median Fluorescence Intensity (MFI) (yellow) (CHO-K1 cells; [9]): 6167; Frequency of high fluorescing cells (CHO-K1 cells; [10]): 1.5%; Median Fluorescence Intensity (MFI) (yellow) (CHO-K1 cells; [10]): 6625; Frequency of high fluorescing cells (CHO-K1 cells; [11]): 0.1%; Median Fluorescence Intensity (MFI) (yellow) (CHO-K1 cells; [11]): 9; Frequency of high fluorescing cells (CHO-K1 cells; [12]): 5.1%; Median Fluorescence Intensity (MFI) (yellow) (CHO-K1 cells; [12]): 5072; Frequency of high fluorescing cells (CHO-K1 cells; [13]): 5.1%; Median Fluorescence Intensity (MFI) (yellow) (CHO-K1 cells; [13]): 5102; Frequency of high fluorescing cells (CHO-K1 cells; [14]): 4.6%; Median Fluorescence Intensity (MFI) (yellow) (CHO-K1 cells; [14]): 4394; Frequency of high fluorescing cells (CHO-K1 cells; [15]): 6.9%; Median Fluorescence Intensity (MFI) (yellow) (CHO-K1 cells; [15]): 7827; Frequency of high fluorescing cells (CHO-K1 cells; [16]): 8.7%; Median Fluorescence Intensity (MFI) (yellow) (CHO-K1 cells; [16]): 9370; Frequency of high fluorescing cells (CHO-K1 cells; [17]): 9.6%; Median Fluorescence Intensity (MFI) (yellow) (CHO-K1 cells; [17]): 8783; Frequency of high fluorescing cells (CHO-K1 cells; [18]): 2.5%; Median Fluorescence Intensity (MFI) (yellow) (CHO-K1 cells; [18]): 11308; Frequency of high fluorescing cells (CHO-K1 cells; [19]): 4.2%; Median Fluorescence Intensity (MFI) (yellow) (CHO-K1 cells; [19]): 11476; Frequency of high fluorescing cells (CHO-K1 cells; [20]): 2.3%; Median Fluorescence Intensity (MFI) (yellow) (CHO-K1 cells; [20]): 11502
